Measured values taken from PubChem BioAssay (NCI).
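Cultured in 96-well plates, cells were exposed to test compound for 48 hours across five concentrations. GI50 = concentration required for 50% inhibition of growth. Definition used: TGI = concentration required for complete inhibition of growth.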

Assays:
Assay in all cases: inhibition of tumour cell growth, NCI panel, 48 h
[1] = system: 786-0 renal
[2] = system: A498 renal
[3] = system: A549 NSCLC
[4] = system: ACHN renal
[5] = system: BT-549 breast
[6] = system: CAKI-1 renal
[7] = system: CCRF-CEM leukemia
[8] = system: COLO 205 colon
[9] = system: DU-145 prostate
[10] = system: EKVX NSCLC
[11] = system: HCC-2998 colon
[12] = system: HCT-116 colon
[13] = system: HCT-15 colon
[14] = system: HL-60(TB) leukemia
[15] = system: HOP-62 NSCLC
[16] = system: HOP-92 NSCLC
[17] = system: HS 578T breast
[18] = system: HT29 colon
[19] = system: IGROV1 ovarian
[20] = system: K-562 leukemia
[21] = system: KM12 colon
[22] = system: LOX IMVI melanoma
[23] = system: M14 melanoma
[24] = system: MALME-3M melanoma
[25] = system: MCF7 breast
[26] = system: MDA-MB-231 breast
[27] = system: MDA-MB-435
[28] = system: MOLT-4 leukemia
[29] = system: NCI-H226 lung
[30] = system: NCI-H23 lung
[31] = system: NCI-H460 lung
[32] = system: NCI-H522 lung
[33] = system: NCI/ADR-RES ovarian
[34] = system: OVCAR-3 ovarian
[35] = system: OVCAR-4 ovarian
[36] = system: OVCAR-5 ovarian
[37] = system: OVCAR-8 ovarian
[38] = system: PC-3 prostate
[39] = system: RPMI-8226 leukemia
[40] = system: RXF 393 renal
[41] = system: SF-268 CNS
[42] = system: SF-295 CNS
[43] = system: SF-539 CNS
[44] = system: SK-MEL-2 melanoma
[45] = system: SK-MEL-28 melanoma
[46] = system: SK-MEL-5 melanoma
[47] = system: SK-OV-3 ovarian
[48] = system: SN12C renal
[49] = system: SNB-19 CNS
[50] = system: SNB-75 CNS
[51] = system: SR leukemia
[52] = system: SW-620 colon
[53] = system: T-47D breast
[54] = system: TK-10 renal
[55] = system: U251 CNS
[56] = system: UACC-257 melanoma
[57] = system: UACC-62 melanoma
[58] = system: UO-31 renal

`COc1ccc(/C=C(\C#N)n2nnc3cc(Cl)ccc32)cc1` was tested. Which GI50 [1] did it give?
Its GI50 is 709 nM.

What about the TGI [1] of the same compound?
The TGI was 8610 nM.

And the GI50 [2]?
The GI50 was 201 nM.

What about the TGI [2] of the same compound?
Its TGI is 3110 nM.

And the GI50 [3]?
Its GI50 is 714 nM.

What about the TGI [3] of the same compound?
The TGI was > 100000 nM.

What about the GI50 [4] of the same compound?
Its GI50 is 593 nM.

What about the TGI [4] of the same compound?
The TGI was > 43500 nM.

And the GI50 [5]?
Its GI50 is 1130 nM.

What about the TGI [5] of the same compound?
Its TGI is > 100000 nM.

And the GI50 [6]?
Its GI50 is 461 nM.

And the TGI [6]?
Its TGI is > 100000 nM.

And the GI50 [7]?
Its GI50 is 431 nM.

What about the TGI [7] of the same compound?
Its TGI is > 100000 nM.

What about the GI50 [8] of the same compound?
Its GI50 is 513 nM.

And the TGI [8]?
Its TGI is 7010 nM.

What about the GI50 [9] of the same compound?
The GI50 was 1710 nM.

What about the TGI [9] of the same compound?
The TGI was 7580 nM.

What about the GI50 [10] of the same compound?
The GI50 was 1470 nM.

And the TGI [10]?
The TGI was > 78000 nM.

What about the GI50 [11] of the same compound?
Its GI50 is 1870 nM.

What about the TGI [11] of the same compound?
The TGI was 8140 nM.

And the GI50 [12]?
Its GI50 is 412 nM.

What about the TGI [12] of the same compound?
Its TGI is 26200 nM.

And the GI50 [13]?
Its GI50 is 328 nM.

And the TGI [13]?
The TGI was 11400 nM.

And the GI50 [14]?
The GI50 was 327 nM.

What about the TGI [14] of the same compound?
Its TGI is > 100000 nM.

And the GI50 [15]?
The GI50 was 887 nM.

And the TGI [15]?
Its TGI is 11100 nM.

And the GI50 [16]?
The GI50 was 552 nM.

And the TGI [16]?
The TGI was 4270 nM.

What about the GI50 [17] of the same compound?
The GI50 was 2550 nM.

And the TGI [17]?
Its TGI is 9370 nM.

And the GI50 [18]?
Its GI50 is 334 nM.

And the TGI [18]?
Its TGI is > 100000 nM.

What about the GI50 [19] of the same compound?
The GI50 was 606 nM.

What about the TGI [19] of the same compound?
The TGI was > 37900 nM.

And the GI50 [20]?
Its GI50 is 217 nM.

What about the TGI [20] of the same compound?
Its TGI is > 100000 nM.

What about the GI50 [21] of the same compound?
The GI50 was 1330 nM.

And the TGI [21]?
The TGI was 37100 nM.

What about the GI50 [22] of the same compound?
The GI50 was 887 nM.

What about the TGI [22] of the same compound?
The TGI was 9400 nM.

And the GI50 [23]?
The GI50 was 373 nM.

And the TGI [23]?
The TGI was 6630 nM.

And the GI50 [24]?
The GI50 was 1220 nM.

And the TGI [24]?
Its TGI is 11300 nM.

And the GI50 [25]?
The GI50 was 375 nM.

And the TGI [25]?
Its TGI is > 33300 nM.

And the GI50 [26]?
Its GI50 is 1090 nM.

And the TGI [26]?
Its TGI is 10200 nM.

What about the GI50 [27] of the same compound?
Its GI50 is 124 nM.

What about the TGI [27] of the same compound?
The TGI was 342 nM.

What about the GI50 [28] of the same compound?
The GI50 was 1090 nM.

What about the TGI [28] of the same compound?
Its TGI is > 100000 nM.

What about the GI50 [29] of the same compound?
The GI50 was 1270 nM.

And the TGI [29]?
The TGI was > 23300 nM.

And the GI50 [30]?
Its GI50 is 1670 nM.

And the TGI [30]?
The TGI was > 33600 nM.

And the GI50 [31]?
Its GI50 is 2830 nM.

And the TGI [31]?
Its TGI is > 56600 nM.

What about the GI50 [32] of the same compound?
Its GI50 is 180 nM.

And the TGI [32]?
The TGI was 704 nM.

What about the GI50 [33] of the same compound?
Its GI50 is 299 nM.

What about the TGI [33] of the same compound?
The TGI was 4580 nM.

And the GI50 [34]?
The GI50 was 253 nM.

And the TGI [34]?
The TGI was 695 nM.

And the GI50 [35]?
Its GI50 is 2510 nM.

And the TGI [35]?
The TGI was > 100000 nM.

And the GI50 [36]?
The GI50 was 1400 nM.

What about the TGI [36] of the same compound?
Its TGI is 6440 nM.

And the GI50 [37]?
The GI50 was 751 nM.

And the TGI [37]?
Its TGI is > 100000 nM.

And the GI50 [38]?
The GI50 was 498 nM.

And the TGI [38]?
Its TGI is > 75200 nM.

And the GI50 [39]?
Its GI50 is 694 nM.

What about the TGI [39] of the same compound?
Its TGI is > 100000 nM.

What about the GI50 [40] of the same compound?
Its GI50 is 787 nM.

And the TGI [40]?
The TGI was 2620 nM.

And the GI50 [41]?
Its GI50 is 2000 nM.

And the TGI [41]?
The TGI was > 100000 nM.

What about the GI50 [42] of the same compound?
Its GI50 is 1180 nM.

What about the TGI [42] of the same compound?
The TGI was 6430 nM.

And the GI50 [43]?
Its GI50 is 1250 nM.

And the TGI [43]?
The TGI was 3500 nM.

What about the GI50 [44] of the same compound?
Its GI50 is 483 nM.

And the TGI [44]?
The TGI was > 47600 nM.

And the GI50 [45]?
Its GI50 is 1330 nM.

What about the TGI [45] of the same compound?
Its TGI is 31200 nM.

What about the GI50 [46] of the same compound?
The GI50 was 2360 nM.

What about the TGI [46] of the same compound?
The TGI was 10600 nM.

And the GI50 [47]?
The GI50 was 7090 nM.

And the TGI [47]?
The TGI was > 82300 nM.

What about the GI50 [48] of the same compound?
The GI50 was 662 nM.

And the TGI [48]?
Its TGI is > 100000 nM.

What about the GI50 [49] of the same compound?
The GI50 was 1120 nM.

And the TGI [49]?
The TGI was > 41400 nM.

And the GI50 [50]?
Its GI50 is 193 nM.

And the TGI [50]?
Its TGI is 983 nM.

What about the GI50 [51] of the same compound?
Its GI50 is 336 nM.

What about the TGI [51] of the same compound?
Its TGI is > 100000 nM.

What about the GI50 [52] of the same compound?
The GI50 was 351 nM.

What about the TGI [52] of the same compound?
The TGI was > 100000 nM.

What about the GI50 [53] of the same compound?
Its GI50 is 407 nM.

What about the GI50 [54] of the same compound?
The GI50 was 1650 nM.

What about the TGI [54] of the same compound?
The TGI was 11500 nM.

What about the GI50 [55] of the same compound?
The GI50 was 630 nM.

What about the TGI [55] of the same compound?
The TGI was 9530 nM.

And the GI50 [56]?
The GI50 was 2400 nM.

And the TGI [56]?
The TGI was > 100000 nM.

And the GI50 [57]?
The GI50 was 382 nM.

And the TGI [57]?
Its TGI is 9660 nM.

What about the GI50 [58] of the same compound?
The GI50 was 2200 nM.

And the TGI [58]?
The TGI was 32400 nM.
